Structures are written as SMILES.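 Exposure lasted 48 hours, with cells grown in 96-well plates and compounds tested at five concentrations. At the GI50, growth is halved. TGI: concentration producing complete growth inhibition.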 Bounds are passed on as bounds.

Among the test systems are A498 renal; SNB-75 CNS; LOX IMVI melanoma; SF-539 CNS; SF-268 CNS; UACC-62 melanoma; OVCAR-8 ovarian; MCF7 breast; NCI-H23 lung; CCRF-CEM leukemia.
Holding throughout (assay): NCI-60 cell line screen, 48 h

In the case of `CC(C)(C)OC(=O)Cn1ncn(NC(=O)Cc2ccccc2)c1=S`, the TGI in the experiment on A498 renal, in the experiment with SNB-75 CNS, with LOX IMVI melanoma, in the experiment on SF-539 CNS, in the experiment on SF-268 CNS and in the experiment on UACC-62 melanoma was greater than 10 µM each time. For the same molecule, the TGI in the experiment with OVCAR-8 ovarian, in the experiment with MCF7 breast, with NCI-H23 lung and in the experiment on CCRF-CEM leukemia was greater than 10 µM in each case.
With `CC1=NN(c2nc(N)nc(CO)n2)C(C)(C)C1`, the TGI in the experiment on A498 renal, in the experiment with SNB-75 CNS, with LOX IMVI melanoma, with SF-539 CNS, in the experiment with SF-268 CNS and in the experiment on UACC-62 melanoma was greater than 100 µM in each case. For the same molecule, the TGI with OVCAR-8 ovarian, with MCF7 breast, with NCI-H23 lung and with CCRF-CEM leukemia was greater than 100 µM throughout.
Turning to `O=C1Cc2cc3ccccc3nc2-c2ccccc2N1`, the TGI was greater than 100 µM in the experiment with A498 renal; 65.7 µM in the experiment on SNB-75 CNS; greater than 100 µM in the experiment on LOX IMVI melanoma; greater than 100 µM in the experiment on SF-539 CNS; greater than 100 µM in the experiment on SF-268 CNS; greater than 100 µM in the experiment with UACC-62 melanoma. In addition, the TGI in the experiment on OVCAR-8 ovarian, in the experiment with MCF7 breast, in the experiment with NCI-H23 lung and in the experiment on CCRF-CEM leukemia was greater than 100 µM in each case.
For `CCOC(=O)N1c2ccccc2C(C)=CC(C)C1C` (stereo not given), the TGI with A498 renal was 96.5 µM; in the experiment with SNB-75 CNS, 69 µM; in the experiment with LOX IMVI melanoma, 63.7 µM; in the experiment with SF-539 CNS it was 42.7 µM; in the experiment with SF-268 CNS, greater than 100 µM; with UACC-62 melanoma, greater than 100 µM. Moreover, the TGI in the experiment on OVCAR-8 ovarian was 44.1 µM; in the experiment on MCF7 breast, greater than 100 µM; in the experiment with NCI-H23 lung it was 60.1 µM; in the experiment on CCRF-CEM leukemia, greater than 100 µM.
As for `Cc1c(C#N)c2nnn(-c3cccc(Cl)c3)c(=O)n2c1-c1ccccc1`, the TGI with A498 renal is 13 µM; in the experiment on SNB-75 CNS it was 7.76 µM; in the experiment on LOX IMVI melanoma it was greater than 100 µM; in the experiment with SF-539 CNS, 10.4 µM; with SF-268 CNS, greater than 100 µM; with UACC-62 melanoma it was 36 µM. Moreover, the TGI was greater than 100 µM with OVCAR-8 ovarian, 35.4 µM in the experiment on MCF7 breast, greater than 100 µM in the experiment on NCI-H23 lung and greater than 100 µM in the experiment with CCRF-CEM leukemia.
In the case of `COC(=O)c1ccccc1C1CN=NC12Cc1ccc(C)cc1C2=O` (stereo not given), the TGI in the experiment with A498 renal, with SNB-75 CNS, with LOX IMVI melanoma, in the experiment on SF-539 CNS, in the experiment on SF-268 CNS and in the experiment on UACC-62 melanoma was greater than 100 µM in each case. Also, the TGI in the experiment on OVCAR-8 ovarian, in the experiment with MCF7 breast, with NCI-H23 lung and with CCRF-CEM leukemia was greater than 100 µM each time.
With `O=C(/C=C/c1ccc(OCc2ccccc2)cc1)NCc1ccc(C(=O)NCCc2ccccc2)cc1`, the TGI in the experiment on A498 renal, in the experiment with SNB-75 CNS, in the experiment on LOX IMVI melanoma, with SF-539 CNS, in the experiment with SF-268 CNS and in the experiment on UACC-62 melanoma was greater than 100 µM each time. In addition, the TGI in the experiment on OVCAR-8 ovarian, with MCF7 breast, with NCI-H23 lung and in the experiment with CCRF-CEM leukemia was greater than 100 µM each time.
For the molecule `O=C(/C=C/c1ccc(-c2ccccc2)cc1)NCc1ccc(C(=O)NCCc2ccccc2)cc1`, the TGI in the experiment with A498 renal is greater than 100 µM; in the experiment on SNB-75 CNS, greater than 100 µM; in the experiment with LOX IMVI melanoma, greater than 100 µM; with SF-539 CNS, 38.1 µM; in the experiment with SF-268 CNS, greater than 100 µM; in the experiment on UACC-62 melanoma, greater than 100 µM. In addition, the TGI with OVCAR-8 ovarian was greater than 100 µM; with MCF7 breast it was greater than 100 µM; with NCI-H23 lung it was greater than 100 µM; in the experiment on CCRF-CEM leukemia it was 39.1 µM.
Turning to `CC(=O)O[C@H]1[C@@H](N2CCOCC2)C[C@H]2[C@@H]3CC=C4C[C@@H](N5CCCC5)CC[C@]4(C)[C@H]3CC[C@@]21C`, the TGI with A498 renal, in the experiment on SNB-75 CNS, in the experiment on LOX IMVI melanoma, in the experiment on SF-539 CNS, in the experiment with SF-268 CNS and in the experiment with UACC-62 melanoma was greater than 100 µM each time. In addition, the TGI with OVCAR-8 ovarian, with MCF7 breast, in the experiment with NCI-H23 lung and with CCRF-CEM leukemia was greater than 100 µM each time.
With `Cc1ccc(/C=c2\cc3oc(=O)c4cccc(c4-3)c2=O)cc1`, the TGI in the experiment on A498 renal, in the experiment with SNB-75 CNS, with LOX IMVI melanoma, in the experiment on SF-539 CNS, in the experiment with SF-268 CNS and in the experiment on UACC-62 melanoma was greater than 100 µM each time. For the same molecule, the TGI was greater than 100 µM with OVCAR-8 ovarian, greater than 100 µM in the experiment with MCF7 breast, greater than 100 µM in the experiment on NCI-H23 lung and 68.2 µM in the experiment on CCRF-CEM leukemia.
`O=C(Nc1cccc(-n2ccc3c(NC(=O)c4ccccc4)ncnc32)c1)Nc1ccc(Cl)c(C(F)(F)F)c1`: the GI50 in the experiment with A498 renal is 2.65 µM; with SNB-75 CNS, 0.954 µM; in the experiment on LOX IMVI melanoma it was 2.82 µM; with SF-539 CNS, 1.98 µM; with SF-268 CNS, 3.69 µM; in the experiment with UACC-62 melanoma, 1.77 µM. Besides, the GI50 is 1.95 µM in the experiment with OVCAR-8 ovarian, 1.49 µM with MCF7 breast, 1.97 µM in the experiment on NCI-H23 lung and 0.655 µM with CCRF-CEM leukemia. Besides, the TGI worked out at 9.51 µM in the experiment with A498 renal; 9.15 µM in the experiment on SNB-75 CNS; 15 µM in the experiment on LOX IMVI melanoma; 9.91 µM in the experiment with SF-539 CNS; 10.5 µM in the experiment on SF-268 CNS; 7.52 µM in the experiment on UACC-62 melanoma. The TGI came to 6.67 µM in the experiment on OVCAR-8 ovarian, 6.14 µM in the experiment on MCF7 breast, 18.7 µM in the experiment with NCI-H23 lung and 9.04 µM with CCRF-CEM leukemia.

(Values after PubChem BioAssay (NCI).)
